# From ChEMBL document CHEMBL1201862, “PubChem BioAssay data set” (2004)
# Active and inactive are the calls of the source. Rule as the data show it, for most assays here: actives have a measured EC50 and inactives only a lower limit.
# Tests used:
# [1] = Luminescence Cell-Based Dose Retest to Confirm Inhibitors of Cancer Stem Cells. [Related pubchem assays (depositor defined):AID2717, AID2721]; type: functional; details: Homo sapiens
# Cytochrome P450 2D6 = Cytochrome P450 2D6 (Homo sapiens, UniProt P10635);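 also: CYP2D6 member of a cytochrome P450 panel assay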
# [2] = test system: Streptococcus sp. 'group A'; test: growth inhibition of control SK(-) GAS strain, dose response, counter-screen for streptokinase expression inhibitor project, luminescence, kanamycin, BacTiterGlo, confirmation (AID 1900); type: functional, organism-based
# Streptokinase A = biological target: T1, Streptokinase A (Streptococcus pyogenes serotype M1, UniProt P10520); test: S. pyogenes streptokinase expression inhibitors, potency, dose response, plasminogen activation absorbance, OD405 (AID 1914); type: functional, Streptococcus pyogenes M1 GAS;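 also: secreted streptokinase activity via plasminogen activation per viability signal from cell pellet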
# T1 sequence (P10520 whole entry): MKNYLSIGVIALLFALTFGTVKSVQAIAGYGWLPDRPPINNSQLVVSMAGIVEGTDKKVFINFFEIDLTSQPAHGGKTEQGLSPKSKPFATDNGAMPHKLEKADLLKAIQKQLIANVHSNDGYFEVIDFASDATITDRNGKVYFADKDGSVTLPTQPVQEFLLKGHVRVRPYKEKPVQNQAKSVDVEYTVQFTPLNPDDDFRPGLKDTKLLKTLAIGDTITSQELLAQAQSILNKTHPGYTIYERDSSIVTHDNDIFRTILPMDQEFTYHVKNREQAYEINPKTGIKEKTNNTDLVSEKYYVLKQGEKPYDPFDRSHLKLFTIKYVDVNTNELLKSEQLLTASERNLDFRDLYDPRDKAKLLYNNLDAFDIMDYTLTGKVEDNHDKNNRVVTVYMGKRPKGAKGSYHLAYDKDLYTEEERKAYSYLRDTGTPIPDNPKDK
# Streptococcus = test: Group A Streptococcus viability loss, dose response, counter-screen for streptokinase expression inhibitor project, luminescence, BacTiterGlo (AID 1915); type: functional, organism-based;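 also: potency for reduction of bacterial viability or growth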
# [3] = inhibitors of intracellular T. cruzi replication, confirmation, NIH3T3 host cells, beta-gal luminescence (AID 2044); type: functional, cell-based;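 also: intracellular parasites grown in NIH/3T3 mouse fibroblasts as host cells; luminescent beta-galactosidase reporter signal from transgenic T. cruzi replicating inside host cells; inhibitors lower the luminescence signal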
# [4] = cytotoxicity toward NIH3T3 fibroblasts, dose response, counter-screen, cell-based, ATP luminescence, mouse fibroblasts (AID 2010); type: functional;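 also: cells exposed to compound for about 90 hours before reading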
# [5] = biological target: T2, Heat shock factor protein 1 (Mus musculus, UniProt P38532); test: inhibition of MG132-induced HSE-luciferase signal, confirmation, cell-based, NIH3T3, luminescence, dose retest (AID 2382); type: functional;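 also: NIH3T3 fibroblasts with HSF1-driven luciferase reporter stressed by proteasome inhibitor MG132; luminescence from HSF1-driven luciferase expression after 8 hours of MG132 stress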
# T2 sequence (P38532 whole entry): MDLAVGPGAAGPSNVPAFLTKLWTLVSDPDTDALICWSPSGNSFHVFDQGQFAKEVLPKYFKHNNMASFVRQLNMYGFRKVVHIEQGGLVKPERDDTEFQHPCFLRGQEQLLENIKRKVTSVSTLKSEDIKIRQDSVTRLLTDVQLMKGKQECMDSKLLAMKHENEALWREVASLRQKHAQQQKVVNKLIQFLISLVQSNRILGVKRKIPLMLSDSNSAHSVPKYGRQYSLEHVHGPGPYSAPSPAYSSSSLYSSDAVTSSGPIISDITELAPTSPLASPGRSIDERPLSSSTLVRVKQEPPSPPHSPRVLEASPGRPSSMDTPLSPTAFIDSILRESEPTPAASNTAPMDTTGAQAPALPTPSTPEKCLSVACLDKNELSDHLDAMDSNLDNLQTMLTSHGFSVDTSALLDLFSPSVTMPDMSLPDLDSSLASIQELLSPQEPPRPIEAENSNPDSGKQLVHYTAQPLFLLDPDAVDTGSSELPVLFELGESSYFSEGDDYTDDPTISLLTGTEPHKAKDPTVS
# INS1 = test: beta cell apoptosis inhibitors, cytokine rescue, dose response, luminescence, retest (AID 449756); type: functional, cell-based; details: Rattus norvegicus;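 also: cell death triggered by IL-1 beta plus TNF-alpha plus IFN-gamma mixture; protective hits raise ATP signal compared with cytokine alone wells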
# [6] = inhibitors of firefly luciferase expression or activity, dose response, H4 neuroglioma cells, luminescence (AID 1990); type: functional, cell-based
# [7] = Luminescence Cell-Based Dose Response HTS to Identify Inhibitors of 5'UTR Stem-Loop Driven Prion Protein mRNA Translation in H4 Neuroglioblastoma Cells. [Related pubchem assays: 1827 (Project Summary), 1813 (Primary HTS)]; type: functional
# Cytochrome P450 2D6, sequence (P10635 whole entry): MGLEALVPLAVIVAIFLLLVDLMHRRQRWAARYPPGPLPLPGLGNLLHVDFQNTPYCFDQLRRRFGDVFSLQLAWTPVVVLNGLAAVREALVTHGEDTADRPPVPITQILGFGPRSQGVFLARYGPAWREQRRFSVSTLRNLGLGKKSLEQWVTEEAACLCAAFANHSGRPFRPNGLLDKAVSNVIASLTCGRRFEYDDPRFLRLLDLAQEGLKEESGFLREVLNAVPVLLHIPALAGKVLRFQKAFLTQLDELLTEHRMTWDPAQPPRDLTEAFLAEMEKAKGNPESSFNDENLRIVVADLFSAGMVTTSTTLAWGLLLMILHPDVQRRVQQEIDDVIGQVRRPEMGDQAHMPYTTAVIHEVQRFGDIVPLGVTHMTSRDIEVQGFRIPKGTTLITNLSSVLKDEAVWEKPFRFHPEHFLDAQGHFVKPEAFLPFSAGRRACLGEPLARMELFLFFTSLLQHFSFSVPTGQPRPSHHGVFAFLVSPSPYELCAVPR
compound,measurement,setting,value
COc1cccc(Nc2nc(-c3ccccc3)nc3ccccc23)c1,AC50,[1],5.53 µM (active)
O=C(CSc1nnc(SCc2cccc3ccccc23)s1)c1ccc2c(c1)OCO2,AC50,Cytochrome P450 2D6,7.94 µM (inconclusive)
COc1ccccc1CN1CN(S(=O)(=O)c2ccccc2)c2nc3ccccc3nc21,EC50,[2],47.6 µM (active)
same,EC50,Streptokinase A,55.1 µM (active)
same,EC50,Streptococcus,> 150 µM (not active)
Cc1c(CCOC(=O)c2cc([N+](=O)[O-])cc([N+](=O)[O-])c2)sc[n+]1CC(=O)c1ccccc1,EC50,[3],1.97 µM (active)
same,EC50,[4],> 60 µM (not active)
O=C(/C=C/c1ccc(F)cc1)c1ccccc1Br,AC50,[1],3.87 µM (active)
COc1ccc(S(=O)(=O)NCC(c2cccnc2)N2CCN(Cc3ccccc3)CC2)cc1C (stereo unspecified),EC50,[3],0.678 µM (active)
same,EC50,[4],> 60 µM (not active)
COc1ccccc1NS(=O)(=O)c1ccc(C)c(C(N)=O)c1,EC50,[5],> 195 µM (not active)
CCOC(=O)N1CCN(C(=O)C(CC)n2nc(C)c3sc4ccccc4c3c2=O)CC1 (stereo unspecified),AC50,Cytochrome P450 2D6,39.8 µM (inconclusive)
CC1CCN(c2nc(-c3ccc(F)cc3)cc(C(F)(F)F)n2)CC1,EC50,[2],11.6 µM (active)
same,EC50,Streptokinase A,4.61 µM (active)
same,EC50,Streptococcus,17.5 µM (active)
Cc1cccc(NC(=O)c2ccc([N+](=O)[O-])s2)c1C,EC50,[3],0.691 µM (active)
same,EC50,[4],> 60 µM (not active)
same,AC50,INS1,12 µM (active)
O=C(/C=C/c1ccc(F)cc1)c1cc(Br)ccc1O,AC50,[1],13.1 µM (active)
Cc1ccccc1NC(S)=NCC1CCN(C(C)c2ccccc2)C1 (stereo unspecified),EC50,[3],1.1 µM (active)
same,EC50,[4],> 60 µM (not active)
CCOC(=O)Cn1nc(C)c(NC(=O)COc2ccc([N+](=O)[O-])cc2)c1C,EC50,[5],> 195 µM (not active)
O=C(NCC(c1cccnc1)N1CCN(c2ccccc2F)CC1)Oc1ccccc1 (stereo unspecified),EC50,[3],0.401 µM (active)
same,EC50,[4],> 60 µM (not active)
CCN(CCCNC(=O)CCCOc1cc(=O)n(C)c2ccccc12)Cc1ccccc1,EC50,[3],0.281 µM (active)
same,EC50,[4],> 60 µM (not active)
COc1cc(NC(=O)CN(C)S(=O)(=O)c2ccc3c(c2)CC(C)N3C(C)=O)cc(OC)c1 (stereo unspecified),EC50,[5],> 195 µM (not active)
O=C(O)c1cccc(NC(=O)c2ccccc2NC(=O)c2ccccc2F)c1,EC50,[5],> 195 µM (not active)
Cc1ccc(CSCCNS(=O)(=O)c2ccc([N+](=O)[O-])cc2)cc1,EC50,[3],0.939 µM (active)
same,EC50,[4],> 60 µM (not active)
COc1ccc(O)c(C(=O)c2cnc3nc4ccccc4n3c2)c1,AC50,INS1,1.23 µM (active)
COc1cc(CCCN2CCNC[C@@H]2Cc2ccc(O)cc2)cc(OC)c1OC,EC50,[5],> 195 µM (not active)
CC(C)C(=O)N1CCN(c2ccccc2NC(=O)COc2ccc(C3CCCCC3)cc2)CC1,EC50,[2],15.8 µM (active)
same,EC50,Streptokinase A,18.9 µM (inconclusive)
same,EC50,Streptococcus,> 150 µM (not active)
c1csc(CN2CC3(CCNCC3)C2)n1,AC50,Cytochrome P450 2D6,39.8 µM (inconclusive)
COC(=O)c1ccccc1NC(=O)c1cc2nc(C3CC3)cc(C(F)(F)F)n2n1,AC50,Cytochrome P450 2D6,3.16 µM (inconclusive)
COc1ccc(Cl)cc1N(CC(=O)N1CCN(Cc2ccccc2)CC1)S(C)(=O)=O,EC50,[5],> 195 µM (not active)
C[N+]1(C)[C@@H]2CC[C@H]1CC(OC(=O)c1c[nH]c3ccccc13)C2 (stereo partly specified),AC50,Cytochrome P450 2D6,31.6 µM (inconclusive)
CCCNC(=O)CSc1nc(-c2cccs2)cc(C(F)(F)F)n1,AC50,Cytochrome P450 2D6,3.16 µM (inconclusive)
COc1ccc2nc(COC(=O)c3cccs3)c(C(C)=O)[n+]([O-])c2c1,EC50,[5],> 195 µM (not active)
CC(C)(C)c1ccc(Oc2cccc(C3CC(=O)C(C4NCCc5ccccc54)C(=O)C3n3cncn3)c2)cc1 (stereo unspecified),EC50,[2],71.1 µM (active)
same,EC50,Streptokinase A,> 150 µM (not active)
same,EC50,Streptococcus,> 150 µM (not active)
CN1C(=O)C(=Cc2ccc(N3CCCCCC3)o2)C(=O)N(C)C1=S,AC50,Cytochrome P450 2D6,20 µM (inconclusive)
COC(=O)c1[nH]c2cc(C)ccc2c1NC(=O)CN1CCCc2ccccc21,EC50,[3],0.99 µM (active)
same,EC50,[4],> 60 µM (not active)
COc1cc(NC(=O)CN(C)S(=O)(=O)c2ccc(-c3ccc(O)nn3)s2)cc(OC)c1,EC50,[5],> 195 µM (not active)
CN(C)S(=O)(=O)c1ccc(-c2csnn2)s1,EC50,[5],> 195 µM (not active)
C[C@@H](N)[C@@H](C)Cc1ccccc1,AC50,Cytochrome P450 2D6,3.98 µM (inconclusive)
O=C(Nc1cccnc1)c1ccc([N+](=O)[O-])s1,AC50,INS1,7.27 µM (active)
NC(=O)COc1ccc(-n2cnnn2)cc1,EC50,[5],> 195 µM (not active)
CCN1CCN(C(S)=Nc2sc(C)c(-c3ccccc3)c2C(=O)OC)CC1,AC50,[1],3.65 µM (active)
CCC1Oc2ccc(C)cc2N(CC(=O)N(Cc2cccnc2)Cc2ccc(C)o2)C1=O (stereo unspecified),EC50,[3],0.166 µM (active)
same,EC50,[4],> 30 µM (not active)
CCOC(=O)c1cccc(-[n+]2c(-c3ccccc3)cc(-c3ccccc3)cc2-c2ccccc2)c1.[O-][Cl+3]([O-])([O-])[O-],AC50,INS1,2.68 µM (active)
CC(=O)NCc1ccc(C(=O)CCl)s1,EC50,[3],3.21 µM (active)
same,EC50,[4],3.9 µM (active)
CCCCCCSc1cc(-c2nc3cnccn3c2NCc2ccccc2)ccc1OC,EC50,[2],4.3 µM (active)
same,EC50,Streptokinase A,16.7 µM (active)
same,EC50,Streptococcus,12.9 µM (active)
CSc1nnc2ccc(-c3ccc(C)cc3)nn12,EC50,[2],> 150 µM (not active)
same,EC50,Streptokinase A,> 150 µM (not active)
same,EC50,Streptococcus,> 150 µM (not active)
O=C(c1ccccc1)c1ccc(OCCCN2CCCC2)cc1,EC50,[3],0.889 µM (active)
same,EC50,[4],> 60 µM (not active)
CCOc1ccc(CN2CCC(n3nccc3NC(=O)c3ccccc3OC)CC2)cc1,EC50,[3],0.997 µM (active)
same,EC50,[4],> 60 µM (not active)
Cn1cccc1C(=O)NC(=O)COC(=O)C12CC3CC(CC(O)(C3)C1)C2,EC50,[5],0.372 µM (active)
CCCCn1c(N)c(N(CCC(C)C)C(=O)c2ccc([N+](=O)[O-])s2)c(=O)[nH]c1=O,EC50,[3],0.997 µM (active)
same,EC50,[4],> 60 µM (not active)
Cc1cc(C)c2cc(CN(CCO)C(=O)Nc3ccc(Cl)cc3)c(O)nc2c1,EC50,[6],15.8 µM (active)
same,EC50,[7],33.3 µM (active)
COc1ccc(O)c(C2=Nc3ccccc3N=C(c3cccs3)C2)c1,EC50,[5],> 195 µM (not active)
COc1ccc(NC(=O)c2ccc3c(c2)NC(=O)CS3)cc1S(=O)(=O)Nc1ccc(Br)cc1,EC50,[2],4.17 µM (active)
same,EC50,Streptokinase A,> 150 µM (not active)
same,EC50,Streptococcus,26.3 µM (active)
CC(C)(C)NC(=O)CSC(=Nc1ccc(F)cc1)NC#N,AC50,Cytochrome P450 2D6,25.1 µM (inconclusive)
Cc1ccc(O)c(C(=O)CC(=O)c2ccc(C(C)(C)C)cc2)c1,EC50,[2],1.63 µM (active)
same,EC50,Streptococcus,3.66 µM (active)
Cc1ccc(C(=O)N2CCOCC2)cc1Cl,EC50,[2],> 150 µM (not active)
same,EC50,Streptokinase A,> 150 µM (not active)
same,EC50,Streptococcus,> 150 µM (not active)
O=C(c1ccco1)N(CCCN1CCOCC1)c1nc(-c2ccc(F)cc2)cs1,EC50,[3],1.28 µM (active)
same,EC50,[4],30.5 µM (active)
CCOC(=O)c1ccc(NC(=O)c2[nH]cnc2C(=O)NCCCCNC(=O)c2nc[nH]c2C(=O)Nc2ccc(C(=O)OCC)cc2)cc1,AC50,[1],2.51 µM (active)
CC(/C=C/c1ccc(N(C)C)cc1)=N\NC1=NC(=O)CC(C(=O)Nc2ccccc2)S1 (stereo unspecified),EC50,[2],2.94 µM (active)
same,EC50,Streptokinase A,> 150 µM (not active)
same,EC50,Streptococcus,9.04 µM (active)
COc1cccc(/C=N/NC(=O)CNC(=O)c2cccs2)c1O,AC50,INS1,7.39 µM (active)
Fc1ccc(Nc2nc(N/N=C/c3ccco3)nc(N3CCCCC3)n2)cc1,EC50,[3],2.88 µM (active)
same,EC50,[4],9.91 µM (active)
C/C(=N\Nc1nc(C(C)(C)C)cs1)c1ccccc1,EC50,[3],0.673 µM (active)
same,EC50,[4],> 30 µM (not active)
COc1ccc(C(=O)N/N=C(\C)Cn2cnc([N+](=O)[O-])n2)cc1,EC50,[3],1.03 µM (active)
same,EC50,[4],> 60 µM (not active)
